Test: recombinant UMI read abundance after kanamycin selection (control-corrected) (log10(CPM+1)); higher = more efficient recombination; extreme values may be limits of the assay; sequences stand for … in AGTGCAGAGAAAATCGGCCAGTTTTCTCTGCCTGCAGTCCGCATGCCGTGGGACCCCTTGGGTTCTAACCTGTTGCCTAGATTTATGCAGCGGACTGCCTTTCTCCCAAAGTGATAAACCGG…AGGTTGGTTTCACT; site = the 11-nt donor
In short: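 The measure is log10(CPM+1) for recombinant UMIs. These were PCR-amplified across the donor–target junction and sequenced after Escherichia coli carrying a donor and donor-binding-loop pair library and a target plasmid with T7-inducible IS621 bridge recombinase was plated on IPTG (0.07 mM) plus kanamycin or unselected. CPM were averaged over two replicates and scaled by control-derived factors.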
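Further: IS621 bridge recombinase in Escherichia coli cells against a fixed T5 target plasmid.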

## CGGAATCCATGGACCGGTTTTCCCGGTAATCCGTATTTGCA (site CGGAATCCTAA)
  recombinant UMI read abundance (log10): 0

## CGGAATCCATGGACCGGTTTTCCCGGTAATCCGTATTTGCA (site CGGAATCCTTG)
  recombinant UMI read abundance (log10): 0.628

## CGGAATTCATGGACCGGTTTTCCCGGTAATCCGTATTTGAA (site CGGAATTCTTT)
  recombinant UMI read abundance (log10): 1.67

## CGGAATTCATGGACCGGTTTTCCCGGTAATCCGTATTTGTA (site CGGAATCCTAA)
  recombinant UMI read abundance (log10): 0.00369

## CGGAATTCATGGACCGGTTTTCCCGGTAATCCGTATTTGTA (site CGGAATTCTTA)
  recombinant UMI read abundance (log10): 2.78

## CGGACAACATGGACCGGTTTTCCCGGTAATCCGTATTTGCT (site CGGACAACTAG)
  recombinant UMI read abundance (log10): 1.89

## CGGACAACATGGACCGGTTTTCCCGGTAATCCGTATTTGCT (site CGGACACCTAG)
  recombinant UMI read abundance (log10): 0

## CGGACAACATGGACCGGTTTTCCCGGTAATCCGTATTTGCT (site CGGACAGCTAG)
  recombinant UMI read abundance (log10): 0.34

## CGGACAACATGGACCGGTTTTCCCGGTAATCCGTATTTGCT (site CGGACATCTAG)
  recombinant UMI read abundance (log10): 2.39

## CGGACATCATGGACCGGTTTTCCCGGTAATCCGTATTTGCA (site CGGACATCTAG)
  recombinant UMI read abundance (log10): 0

## CGGACATCATGGACCGGTTTTCCCGGTAATCCGTATTTGCA (site CGGACATCTCG)
  recombinant UMI read abundance (log10): 0

## CGGACATCATGGACCGGTTTTCCCGGTAATCCGTATTTGCA (site CGGACATCTGG)
  recombinant UMI read abundance (log10): 0

## CGGACATCATGGACCGGTTTTCCCGGTAATCCGTATTTGCA (site CGGACATCTTG)
  recombinant UMI read abundance (log10): 2.76

## CGGACATCATGGACCGGTTTTCCCGGTAATCCGTATTTGGT (site CGGACATCTAA)
  recombinant UMI read abundance (log10): 0.416

## CGGACATCATGGACCGGTTTTCCCGGTAATCCGTATTTGGT (site CGGACATCTAC)
  recombinant UMI read abundance (log10): 2.13

## CGGACATCATGGACCGGTTTTCCCGGTAATCCGTATTTGGT (site CGGACATCTAG)
  recombinant UMI read abundance (log10): 0

## CGGACATCATGGACCGGTTTTCCCGGTAATCCGTATTTGGT (site CGGACATCTAT)
  recombinant UMI read abundance (log10): 1.15

## CGGACCTCATGGACCGGTTTTCCCGGTAATCCGTATTTGCT (site CGGACATCTAG)
  recombinant UMI read abundance (log10): 0.00704

## CGGACCTCATGGACCGGTTTTCCCGGTAATCCGTATTTGCT (site CGGACCTCTAG)
  recombinant UMI read abundance (log10): 3.12

## CGGACCTCATGGACCGGTTTTCCCGGTAATCCGTATTTGCT (site CGGACGTCTAG)
  recombinant UMI read abundance (log10): 0.00745

## CGGACCTCATGGACCGGTTTTCCCGGTAATCCGTATTTGCT (site CGGACTTCTAG)
  recombinant UMI read abundance (log10): 0

## CGGACGTCATGGACCGGTTTTCCCGGTAATCCGTATTTGCT (site CGGACATCTAG)
  recombinant UMI read abundance (log10): 2.54

## CGGACGTCATGGACCGGTTTTCCCGGTAATCCGTATTTGCT (site CGGACCTCTAG)
  recombinant UMI read abundance (log10): 0

## CGGACGTCATGGACCGGTTTTCCCGGTAATCCGTATTTGCT (site CGGACGTCTAG)
  recombinant UMI read abundance (log10): 3.06

## CGGACGTCATGGACCGGTTTTCCCGGTAATCCGTATTTGCT (site CGGACTTCTAG)
  recombinant UMI read abundance (log10): 0.597

## CGGACTACATGGACCGGTTTTCCCGGTAATCCGTATTTGAC (site AGGACTACTGT)
  recombinant UMI read abundance (log10): 0

## CGGACTACATGGACCGGTTTTCCCGGTAATCCGTATTTGAC (site CGGACTACTGT)
  recombinant UMI read abundance (log10): 2.98

## CGGACTACATGGACCGGTTTTCCCGGTAATCCGTATTTGAC (site GGGACTACTGT)
  recombinant UMI read abundance (log10): 0

## CGGACTACATGGACCGGTTTTCCCGGTAATCCGTATTTGAC (site TGGACTACTGT)
  recombinant UMI read abundance (log10): 1.51

## CGGACTCCATGGACCGGTTTTCCCGGTAATCCGTATTTGGT (site CGGAATCCTAA)
  recombinant UMI read abundance (log10): 0.00968

## CGGACTCCATGGACCGGTTTTCCCGGTAATCCGTATTTGGT (site CGGACTCCTAC)
  recombinant UMI read abundance (log10): 0.215

## CGGAGAGCATGGACCGGTTTTCCCGGTAATCCGTATTTGAA (site CGGAGAGCTTT)
  recombinant UMI read abundance (log10): 2.27

## CGGAGCACATGGACCGGTTTTCCCGGTAATCCGTATTTGCA (site CGGAGCACTTG)
  recombinant UMI read abundance (log10): 2.66

## CGGAGGACATGGACCGGTTTTCCCGGTAATCCGTATTTGCA (site AGGAAGACTTG)
  recombinant UMI read abundance (log10): 0

## CGGAGGACATGGACCGGTTTTCCCGGTAATCCGTATTTGCA (site CGGAGGACTTG)
  recombinant UMI read abundance (log10): 2.78

## CGGAGGCCATGGACCGGTTTTCCCGGTAATCCGTATTTGTT (site CGGAATCCTAA)
  recombinant UMI read abundance (log10): 0.00304

## CGGAGGCCATGGACCGGTTTTCCCGGTAATCCGTATTTGTT (site CGGAGGCCTAA)
  recombinant UMI read abundance (log10): 0

## CGGATAGCATGGACCGGTTTTCCCGGTAATCCGTATTTGTT (site CGGATAGCTAA)
  recombinant UMI read abundance (log10): 2

## CGGCATCCATGGACCGGTTTTCCCGGTAATCCGTATTTGTG (site CGGAATCCTAA)
  recombinant UMI read abundance (log10): 0

## CGGCATCCATGGACCGGTTTTCCCGGTAATCCGTATTTGTG (site CGGCATCCTCA)
  recombinant UMI read abundance (log10): 0.644

## CGGCCGGCATGGACCGGTTTTCCCGGTAATCCGTATTTGGC (site AGGCCGGCTGC)
  recombinant UMI read abundance (log10): 0

## CGGCCGGCATGGACCGGTTTTCCCGGTAATCCGTATTTGGC (site CGGCCGGCTGC)
  recombinant UMI read abundance (log10): 1.21

## CGGCCGGCATGGACCGGTTTTCCCGGTAATCCGTATTTGGC (site GGGCCGGCTGC)
  recombinant UMI read abundance (log10): 0

## CGGCCGGCATGGACCGGTTTTCCCGGTAATCCGTATTTGGC (site TGGCCGGCTGC)
  recombinant UMI read abundance (log10): 0

## CGGCGCACATGGACCGGTTTTCCCGGTAATCCGTATTTGTA (site CGGCGCACTTA)
  recombinant UMI read abundance (log10): 1.57

## CGGCTACCATGGACCGGTTTTCCCGGTAATCCGTATTTGCT (site CAGCTACCTAG)
  recombinant UMI read abundance (log10): 0

## CGGCTACCATGGACCGGTTTTCCCGGTAATCCGTATTTGCT (site CCGCTACCTAG)
  recombinant UMI read abundance (log10): 0

## CGGCTACCATGGACCGGTTTTCCCGGTAATCCGTATTTGCT (site CGGCTACCTAG)
  recombinant UMI read abundance (log10): 0

## CGGCTACCATGGACCGGTTTTCCCGGTAATCCGTATTTGCT (site CTGCTACCTAG)
  recombinant UMI read abundance (log10): 0

## CGGCTGACATGGACCGGTTTTCCCGGTAATCCGTATTTGCC (site CGGCTGACTGG)
  recombinant UMI read abundance (log10): 1.22

## CGGCTGACATGGACCGGTTTTCCCGGTAATCCGTATTTGTT (site CGGCTGACTAA)
  recombinant UMI read abundance (log10): 0.0767

## CGGGAACCATGGACCGGTTTTCCCGGTAATCCGTATTTGAG (site CGGGAACCTAT)
  recombinant UMI read abundance (log10): 0

## CGGGAACCATGGACCGGTTTTCCCGGTAATCCGTATTTGAG (site CGGGAACCTCT)
  recombinant UMI read abundance (log10): 0.013

## CGGGAACCATGGACCGGTTTTCCCGGTAATCCGTATTTGAG (site CGGGAACCTGT)
  recombinant UMI read abundance (log10): 0

## CGGGAACCATGGACCGGTTTTCCCGGTAATCCGTATTTGAG (site CGGGAACCTTT)
  recombinant UMI read abundance (log10): 0

## CGGGAACCATGGACCGGTTTTCCCGGTAATCCGTATTTGCG (site CGGGAACCTCG)
  recombinant UMI read abundance (log10): 0

## CGGGAACCATGGACCGGTTTTCCCGGTAATCCGTATTTGTT (site CGGAATCCTAA)
  recombinant UMI read abundance (log10): 0

## CGGGAACCATGGACCGGTTTTCCCGGTAATCCGTATTTGTT (site CGGGAACCTAA)
  recombinant UMI read abundance (log10): 0.47

## CGGGAACCATGGACCGGTTTTCCCGGTAATCCGTATTTGTT (site CGGGAACCTAC)
  recombinant UMI read abundance (log10): 0

## CGGGAACCATGGACCGGTTTTCCCGGTAATCCGTATTTGTT (site CGGGAACCTAG)
  recombinant UMI read abundance (log10): 0

## CGGGAACCATGGACCGGTTTTCCCGGTAATCCGTATTTGTT (site CGGGAACCTAT)
  recombinant UMI read abundance (log10): 0.0108

## CGGGAGACATGGACCGGTTTTCCCGGTAATCCGTATTTGCC (site CGGGAGACTGG)
  recombinant UMI read abundance (log10): 1.58

## CGGGAGACATGGACCGGTTTTCCCGGTAATCCGTATTTGCC (site CGGGAGCCTGG)
  recombinant UMI read abundance (log10): 0

## CGGGAGACATGGACCGGTTTTCCCGGTAATCCGTATTTGCC (site CGGGAGGCTGG)
  recombinant UMI read abundance (log10): 1.69

## CGGGAGACATGGACCGGTTTTCCCGGTAATCCGTATTTGCC (site CGGGAGTCTGG)
  recombinant UMI read abundance (log10): 0.663

## CGGGAGTCATGGACCGGTTTTCCCGGTAATCCGTATTTGCG (site CGGGAGTCTAG)
  recombinant UMI read abundance (log10): 1.03

## CGGGAGTCATGGACCGGTTTTCCCGGTAATCCGTATTTGCG (site CGGGAGTCTCG)
  recombinant UMI read abundance (log10): 2.8

## CGGGAGTCATGGACCGGTTTTCCCGGTAATCCGTATTTGCG (site CGGGAGTCTGG)
  recombinant UMI read abundance (log10): 0

## CGGGAGTCATGGACCGGTTTTCCCGGTAATCCGTATTTGCG (site CGGGAGTCTTG)
  recombinant UMI read abundance (log10): 0.888

## CGGGAGTCATGGACCGGTTTTCCCGGTAATCCGTATTTGGC (site CGGGAGTCTGA)
  recombinant UMI read abundance (log10): 1.59

## CGGGAGTCATGGACCGGTTTTCCCGGTAATCCGTATTTGGC (site CGGGAGTCTGC)
  recombinant UMI read abundance (log10): 2.76

## CGGGAGTCATGGACCGGTTTTCCCGGTAATCCGTATTTGGC (site CGGGAGTCTGG)
  recombinant UMI read abundance (log10): 0.911

## CGGGAGTCATGGACCGGTTTTCCCGGTAATCCGTATTTGGC (site CGGGAGTCTGT)
  recombinant UMI read abundance (log10): 1.96

## CGGGATCCATGGACCGGTTTTCCCGGTAATCCGTATTTGCT (site CGGAATCCTAA)
  recombinant UMI read abundance (log10): 0.0224

## CGGGATCCATGGACCGGTTTTCCCGGTAATCCGTATTTGCT (site CGGGATCCTAG)
  recombinant UMI read abundance (log10): 0

Reference: the supplement of paper PMC11208160
